“And” between values parts separate entries of the source, which are not always exact repeats. Equal values may be shown once. Read-outs that look alike come from different tables or passages of the source.
Test: Pharmacokinetic study in male Sprague Dawley rats
Assay type: in vivo, rat
Settings: for concentration at 0.033 h / concentration at 0.33 h / concentration at 1 h / concentration at 2 h / concentration at 4 h / concentration at 8 h / concentration at 24 h: male, Sprague Dawley
Experimental: The pharmacokinetic (PK) profile in plasma of Compound 1 was determined in male Sprague Dawley rats following single dose intravenous (IV) (2 mg/kg) and per os (PO) (10 mg/kg) administration. This study was performed under non-GLP conditions, and unless otherwise stated, all analytical reagents were at least standard laboratory reagent grade, and deionized water was prepared at the study site.
The characteristics of Compound 1 used in this study were as follows: molecular weight of base, 710.78; molecular weight of Compound 1 with salt, 824.81; purity on as is basis, 99.28%.
All animals were housed in cages with clean bedding and maintained and monitored for good health and at the discretion of the laboratory animal veterinarian. Certified rodent diet was provided, and water was available ad libitum. Environmental controls for the animal room were set to maintain a temperature of 22 to 25° C., humidity of 40-70% relative humidity, and a 12-hour light/12-hour dark cycle.
Normal healthy animals certified by the attending veterinarian were selected and acclimatized for a minimum of three days prior to initiation of the study. Animals were identified by body markings.
The rats were anaesthetized with a single dose of ketamine 50 mg/kg i.p. plus xylazine 6 mg/kg i.p. The right jugular was exposed, and a loose ligature was placed caudally, and the cranial end of the vein was ligated. A small incision was made between the ligatures into which a catheter (polyethylene 50 tubing with an internal diameter of 0.58 mm and outer diameter of 0.96 mm) was inserted. The catheter was secured in place by tying the loose ligature around the catheterized vessel. A small incision was made in the scapular region to serve as the exit site of the catheter. The catheter was subcutaneously tunneled and exteriorized through the scapular incision. A stay suture was placed in the scapular area. Patency was tested, and the catheter was filled with a locking solution (heparinized saline) and sealed with a stainless-steel plug. The incision was then sutured with sterile suturing material. Anti-septic solution was applied to the sutured site and the animal was placed back in its home cage. The animals were closely observed throughout the recovery period of 24 hours. The rats were freely moving in the cage (one rat per cage).
Test animals were weighed prior to drug administration, and the standard weight of the animals used was 190 grams. The animals were divided into two groups, IV group and PO group, with each group containing 3 test animals each and 2 spare animals. The IV dose was administered by intravenous injection into the tail vein and PO dose was administered via oral gavage needle. The dosing volume was 5 mL/kg body weight for both groups. The dosing concentration was 0.4 mg/mL for the IV group and 2 mg/mL for the PO group. The animals were in fasted state during the study.
For both dosing groups, blood was collected from the jugular vein (serial sampling) for plasma isolation at 0.033, 0.33, 1, 2, 4, 6, 8, and 24 hour timepoints. The anti-coagulant solution used was 6% (v/v) sodium citrate (200 mM, pH 4.79).
For sample collection, the animals were held to remove the first two drops of blood from the cannula to ensure removal of any excess heparinized saline before collection of blood. The external catheter was connected to a syringe and 0.20-0.30 mL of blood was collected in the syringe and transferred to a pre-labeled, pre-chilled tube. Blood volume was replaced by administering to the animal an equal volume of saline through the jugular vein. After blood collection from each animal, the sample from that animal was recorded in the sample collection sheet.
After collection of each blood sample, the blood sample was stored on ice prior to centrifugation. Blood samples were centrifuged within 20 minutes of collection to separate plasma. Centrifugation was conducted at 2500×g for 15 minutes at 4° C. […]

[1] = rat, plasma, 2 mg/kg IV, Male Sprague Dawley Rats, mean
[2] = rat, plasma, 10 mg/kg PO, Male Sprague Dawley Rats, mean

## COc1cc(-c2cn(C)c(=O)c(C)c2C)cc(OC)c1CN1CC[C@H](N2CCN(c3ccc(N[C@H]4CCC(=O)NC4=O)cc3F)CC2)C(F)(F)C1 [Compound 1, (S)-3-((4-(4-((S)-1-(2,6-dimethoxy-4-(1,4,5-trimethyl-6-oxo-1,6-dihydropyridin-3-yl)benzyl)-3,3-difluoropiperidin-4-yl)piperazin-1-yl)-3-fluorophenyl)amino)-piperidine-2,6-dione]
2 mg/kg IV, 0.033 h
  Plasma Concentration, individual rats: 827.34 ng/mL and 751.46 ng/mL
2 mg/kg IV, 0.33 h
  Plasma Concentration, individual rats: 387.61 ng/mL and 411.63 ng/mL
2 mg/kg IV, 1 h
  Plasma Concentration, individual rats: 253.11 ng/mL and 196.32 ng/mL
2 mg/kg IV, 2 h
  Plasma Concentration, individual rats: 175.63 ng/mL and 182.50 ng/mL
2 mg/kg IV, 4 h
  Plasma Concentration, individual rats: 82.15 ng/mL and 113.01 ng/mL
2 mg/kg IV, 8 h
  Plasma Concentration, individual rats: 66.27 ng/mL and 68.01 ng/mL
2 mg/kg IV, 24 h
  Plasma Concentration, individual rats: 2.51 ng/mL and 4.24 ng/mL
2 mg/kg IV, Male Sprague Dawley Rats, mean
  CI: 21.64 mL/min/kg
rat, plasma, intravenous, 2 mg/kg, 2 mg/kg IV, 0.033 h, read-out: Plasma Concentration, Average
  concentration at 0.033 h: 811 ng/mL
rat, plasma, intravenous, 2 mg/kg, 2 mg/kg IV, 0.033 h, read-out: Plasma Concentration, individual rats
  concentration at 0.033 h: 854 ng/mL
rat, plasma, intravenous, 2 mg/kg, 2 mg/kg IV, 0.33 h, read-out: Plasma Concentration, Average
  concentration at 0.33 h: 395 ng/mL
rat, plasma, intravenous, 2 mg/kg, 2 mg/kg IV, 0.33 h, read-out: Plasma Concentration, individual rats
  concentration at 0.33 h: 385 ng/mL
rat, plasma, intravenous, 2 mg/kg, 2 mg/kg IV, 1 h, read-out: Plasma Concentration, Average
  concentration at 1 h: 202 ng/mL
rat, plasma, intravenous, 2 mg/kg, 2 mg/kg IV, 1 h, read-out: Plasma Concentration, individual rats
  concentration at 1 h: 158 ng/mL
rat, plasma, intravenous, 2 mg/kg, 2 mg/kg IV, 2 h, read-out: Plasma Concentration, Average
  concentration at 2 h: 181 ng/mL
rat, plasma, intravenous, 2 mg/kg, 2 mg/kg IV, 2 h, read-out: Plasma Concentration, individual rats
  concentration at 2 h: 186 ng/mL
rat, plasma, intravenous, 2 mg/kg, 2 mg/kg IV, 4 h, read-out: Plasma Concentration, Average
  concentration at 4 h: 107 ng/mL
rat, plasma, intravenous, 2 mg/kg, 2 mg/kg IV, 4 h, read-out: Plasma Concentration, individual rats
  concentration at 4 h: 125 ng/mL
rat, plasma, intravenous, 2 mg/kg, 2 mg/kg IV, 8 h, read-out: Plasma Concentration, Average
  concentration at 8 h: 61.9 ng/mL
rat, plasma, intravenous, 2 mg/kg, 2 mg/kg IV, 8 h, read-out: Plasma Concentration, individual rats
  concentration at 8 h: 51.4 ng/mL
rat, plasma, intravenous, 2 mg/kg, 2 mg/kg IV, 24 h, read-out: Plasma Concentration, Average
  concentration at 24 h: 3.76 ng/mL
rat, plasma, intravenous, 2 mg/kg, 2 mg/kg IV, 24 h, read-out: Plasma Concentration, individual rats
  concentration at 24 h: 4.54 ng/mL
rat, plasma, oral, 10 mg/kg, 10 mg/kg PO, Male Sprague Dawley Rats, 0.033 h, Rat-1, read-out: Plasma Concentration (ng/mL) Rat-1
  concentration at 0.033 h: 2.98 ng/mL
rat, plasma, oral, 10 mg/kg, 10 mg/kg PO, Male Sprague Dawley Rats, 0.033 h, Rat-2, read-out: Plasma Concentration (ng/mL) Rat-2
  concentration at 0.033 h: 16.4 ng/mL
rat, plasma, oral, 10 mg/kg, 10 mg/kg PO, Male Sprague Dawley Rats, 0.033 h, Rat-3, read-out: Plasma Concentration (ng/mL) Rat-3
  concentration at 0.033 h: 1.81 ng/mL
rat, plasma, oral, 10 mg/kg, 10 mg/kg PO, Male Sprague Dawley Rats, 0.033 h, average, read-out: Plasma Concentration Average
  concentration at 0.033 h: 7.06 ng/mL
rat, plasma, oral, 10 mg/kg, 10 mg/kg PO, Male Sprague Dawley Rats, 0.33 h, Rat-1, read-out: Plasma Concentration (ng/mL) Rat-1
  concentration at 0.33 h: 215 ng/mL
rat, plasma, oral, 10 mg/kg, 10 mg/kg PO, Male Sprague Dawley Rats, 0.33 h, Rat-2, read-out: Plasma Concentration (ng/mL) Rat-2
  concentration at 0.33 h: 177 ng/mL
rat, plasma, oral, 10 mg/kg, 10 mg/kg PO, Male Sprague Dawley Rats, 0.33 h, Rat-3, read-out: Plasma Concentration (ng/mL) Rat-3
  concentration at 0.33 h: 350 ng/mL
rat, plasma, oral, 10 mg/kg, 10 mg/kg PO, Male Sprague Dawley Rats, 0.33 h, average, read-out: Plasma Concentration Average
  concentration at 0.33 h: 247 ng/mL
rat, plasma, oral, 10 mg/kg, 10 mg/kg PO, Male Sprague Dawley Rats, 1 h, Rat-1, read-out: Plasma Concentration (ng/mL) Rat-1
  concentration at 1 h: 648 ng/mL
rat, plasma, oral, 10 mg/kg, 10 mg/kg PO, Male Sprague Dawley Rats, 1 h, Rat-2, read-out: Plasma Concentration (ng/mL) Rat-2
  concentration at 1 h: 416 ng/mL
rat, plasma, oral, 10 mg/kg, 10 mg/kg PO, Male Sprague Dawley Rats, 1 h, Rat-3, read-out: Plasma Concentration (ng/mL) Rat-3
  concentration at 1 h: 729 ng/mL
rat, plasma, oral, 10 mg/kg, 10 mg/kg PO, Male Sprague Dawley Rats, 1 h, average, read-out: Plasma Concentration Average
  concentration at 1 h: 598 ng/mL
rat, plasma, oral, 10 mg/kg, 10 mg/kg PO, Male Sprague Dawley Rats, 2 h, Rat-1, read-out: Plasma Concentration (ng/mL) Rat-1
  concentration at 2 h: 560 ng/mL
rat, plasma, oral, 10 mg/kg, 10 mg/kg PO, Male Sprague Dawley Rats, 2 h, Rat-2, read-out: Plasma Concentration (ng/mL) Rat-2
  concentration at 2 h: 864 ng/mL
rat, plasma, oral, 10 mg/kg, 10 mg/kg PO, Male Sprague Dawley Rats, 2 h, Rat-3, read-out: Plasma Concentration (ng/mL) Rat-3
  concentration at 2 h: 594 ng/mL
rat, plasma, oral, 10 mg/kg, 10 mg/kg PO, Male Sprague Dawley Rats, 2 h, average, read-out: Plasma Concentration Average
  concentration at 2 h: 673 ng/mL
rat, plasma, oral, 10 mg/kg, 10 mg/kg PO, Male Sprague Dawley Rats, 4 h, Rat-1, *Outlier: Aberrant value, read-out: Plasma Concentration (ng/mL) Rat-1
  concentration at 4 h: 227 ng/mL
rat, plasma, oral, 10 mg/kg, 10 mg/kg PO, Male Sprague Dawley Rats, 4 h, Rat-2, read-out: Plasma Concentration (ng/mL) Rat-2
  concentration at 4 h: 593 ng/mL
rat, plasma, oral, 10 mg/kg, 10 mg/kg PO, Male Sprague Dawley Rats, 4 h, Rat-3, read-out: Plasma Concentration (ng/mL) Rat-3
  concentration at 4 h: 420 ng/mL
rat, plasma, oral, 10 mg/kg, 10 mg/kg PO, Male Sprague Dawley Rats, 4 h, average, read-out: Plasma Concentration Average
  concentration at 4 h: 506 ng/mL
rat, plasma, oral, 10 mg/kg, 10 mg/kg PO, Male Sprague Dawley Rats, 8 h, Rat-1, read-out: Plasma Concentration (ng/mL) Rat-1
  concentration at 8 h: 304 ng/mL
rat, plasma, oral, 10 mg/kg, 10 mg/kg PO, Male Sprague Dawley Rats, 8 h, Rat-2, read-out: Plasma Concentration (ng/mL) Rat-2
  concentration at 8 h: 527 ng/mL
rat, plasma, oral, 10 mg/kg, 10 mg/kg PO, Male Sprague Dawley Rats, 8 h, Rat-3, read-out: Plasma Concentration (ng/mL) Rat-3
  concentration at 8 h: 370 ng/mL
rat, plasma, oral, 10 mg/kg, 10 mg/kg PO, Male Sprague Dawley Rats, 8 h, average, read-out: Plasma Concentration Average
  concentration at 8 h: 400 ng/mL
rat, plasma, oral, 10 mg/kg, 10 mg/kg PO, Male Sprague Dawley Rats, 24 h, Rat-1, read-out: Plasma Concentration (ng/mL) Rat-1
  concentration at 24 h: 21.5 ng/mL
rat, plasma, oral, 10 mg/kg, 10 mg/kg PO, Male Sprague Dawley Rats, 24 h, Rat-2, read-out: Plasma Concentration (ng/mL) Rat-2
  concentration at 24 h: 49.3 ng/mL
rat, plasma, oral, 10 mg/kg, 10 mg/kg PO, Male Sprague Dawley Rats, 24 h, Rat-3, read-out: Plasma Concentration (ng/mL) Rat-3
  concentration at 24 h: 36.8 ng/mL
rat, plasma, oral, 10 mg/kg, 10 mg/kg PO, Male Sprague Dawley Rats, 24 h, average, read-out: Plasma Concentration Average
  concentration at 24 h: 35.8 ng/mL
[1]
  AUC(0-inf): 1540 ng·h/mL
  AUC(0-t): 1520 ng·h/mL
  C0: 879 ng/mL
  MRT last: 4.82 h
  half-life: 3.97 h
rat, plasma, 2 mg/kg IV, Male Sprague Dawley Rats, mean, read-out: Vdss
  Vd: 6.7 L/kg
[2]
  AUC(0-inf): 6560 ng·h/mL
  AUC(0-t): 6290 ng·h/mL
  Cmax: 747 ng/mL
  MRT last: 7.34 h
  Tmax: 1.33 h
  bioavailability: 82.8%
  half-life: 5.12 h
